Measured values reported in patent US5506340A, “Tumor necrosis factor inhibitors” (Centecor, Inc., priority 1994, dated 1996).
No end group written: not given here.

molecular target: T1, human TNFα (Homo sapiens, UniProt P01375); test: p55 receptor/IgG fusion protein binding assay (inhibition of TNFα capture by p55-Ig coated plate); conditions: TNFα 25 ng/ml preincubated with peptide, read-out: IC50 (concentration necessary to inhibit TNFα by 50%), inhibition of binding of TNFα to p55TNFr-IgG chimeric construct
T1 construct: purchased Biosource, Camarillo, Calif
T1 sequence (P01375 77-233 limits assumed): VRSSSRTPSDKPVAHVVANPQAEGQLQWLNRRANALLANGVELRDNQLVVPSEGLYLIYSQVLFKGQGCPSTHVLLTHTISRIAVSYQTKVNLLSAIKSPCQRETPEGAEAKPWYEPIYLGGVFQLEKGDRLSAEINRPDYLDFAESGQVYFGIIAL
Procedure: This assay was designed to identify peptides which bind to human TNFα and thereby prevent the capture of the TNFα by a microtiter plate coated with p55-Ig fusion protein. A constant concentration of human TNFα is preincubated with the test peptide and then incubated on the p55-Ig coated microtiter wells. Bound TNFα is detected using a specific antisera and an alkaline phosphatase-conjugated probe.
A 96-well, U-bottom polyvinylchloride microtiter plate was coated with 50 μl/well of p55-Ig fusion protein at 5 μg/ml in 0.01M sodium phosphate, 0.15M sodium chloride (PBS) by incubation overnight at 4° C. or 2 hours at 37° C. […] 29, 1993 which is incorporated herein by reference. The plate was washed three times with 0.05% Tween-20 in PBS, then blocked, by adding 150 μl/well of assay buffer (10 mM N-2-hydroxyethylpiperazine-N'-[…] (HEPES) pH 7.2, containing 0.1% porcine gelatin, 0.1% Tween-80, and 0.01% sodium azide) and continuing incubation for 1 hour at 37° C. or at 4° C. for 1-7 days.
Lyophilized peptides to be tested were weighed in tared 12×75 mm polystyrene tubes and reconstituted to a concentration of 1.2 mM with assay buffer. Each suspension was sonicated in a water bath for 1-5 minutes and vortexed 15-30 seconds to disperse large particles. Serial dilutions of each peptide suspension were prepared using assay buffer in a 96-well polystyrene microtiter plate. Additional wells received Fab fragment of the mouse/human monoclonal anti-human TNFα antibody cA2 (positive control) or assay buffer (negative control). […] The polystyrene dilution plate was then sealed and incubated 1 hour at room temperature on an orbital mixer set at moderate speed.
Following the sample preincubation, blocker was discarded from the p55-Ig coated plate and blotted dry. Aliquots (50 μl) of each peptide or control were transferred into duplicate wells on the p55-Ig coated plate which was then sealed and incubated 1 hour at 37° C. Duplicate wells containing only assay buffer were included as a plate blank. After incubation the p55-Ig plate was washed three times with 0.05% Tween-20 in PBS.
All incubations were for 1 hour at 37° C. and after each incubation the plate was washed three times with 0.05% Tween-20 in PBS. Fifty microliters of alkaline phosphatase substrate solution (alkaline buffer (Sigma, St. Louis, Mo.) diluted 1:500 in deionized water plus one 5 mg tablet of p-nitrophenyl phosphate (Sigma, St. Louis, Mo.) per 5 ml of diluted buffer) was added to all wells and incubation continued for 20 minutes at room temperature. Color development was stopped by adding to all wells 50 μl of 3N sodium hydroxide. The optical density (OD) at 405 nm was measured on a microtiter plate reader (Molecular Devices Vmax plate reader), with the plate blank wells subtracted as background. The activity of each peptide was then expressed as the percent inhibition of TNFα capture by the p55-Ig plate, relative to the amount of TNFα captured in wells containing only assay buffer (negative control), as follows:
The inhibition of binding of TNFα to p55TNFr-IgG chimeric construct was performed as described above using several embodiments of the invention. The peptides were tested to determine the concentration necessary to inhibit TNFα by 50% (IC50) relative to TNFα activity in the absence of the peptide.

Compared with WLHSMYHGAAFQLTQ-NH2, MVYPGLQEPWLHSMY-NH2 is 1.8-fold higher in IC50: 480 µM for the first, 850 µM for the second. The first is the more potent here.

YLAHEVQLFSSQYPF-NH2 and QEPWLHSMYHGAAFQ-NH2 are within 1.5-fold of each other in IC50: 370 µM for the first, 310 µM for the second.

For PGLQEPWLHSMYHGA-NH2, the IC50 was 600 µM.
